Results: patent publication US20250249056A1, “CANCER THERAPIES COMPRISING A NUCLEAR EXPORT INHIBITOR AND AN ONCOLYTIC VIRUS” (priority 2022, published 2025)

Legend:
[1] = test system: Colo205 cells; assay: CyQUANT NF cell proliferation assay (Colo205); assay type: cell-based, human; conditions: after 24 hours compared to mock treated cells, selinexor 0.1 or 1 μM, multiple MOI
Method: Cell Proliferation Assay: To measure cancer cell proliferation based on the amount of cellular DNA, the CyQuant™ NF Cell Proliferation Assay Kit (Invitrogen) was used according to the manufacturer's instructions. Briefly, PANC-1, HT29, MDA-MB435, and Colo205 cells were seeded in a 96-well plate (1×10^4 cells/well) and left to attach to the wells overnight. The next day, the medium was removed and replaced with 50 μL medium containing different concentrations of selinexor (0-1 μM). After an hour of incubation with selinexor, the virus was added to different MOIs (0.5-5), bringing the end volume of every well up to 100 μL. A 1× dye binding solution was prepared by adding 9 μL of the CyQuant™ NF Dye reagent in 4.5 mL Hank's Balanced Salt Solution (HBSS) buffer (Invitrogen). After 24, 48, 72, and 96 hours of incubation, the medium was removed from the cells and 50 μL 1× dye solution was added to all wells. The microplate was covered to protect it from light and was incubated for 30-60 minutes in a 5% CO2 incubator at 37° C. Subsequently, cell proliferation was quantified by measuring fluorescence with an excitation of 485 nm and emission of 530 nm in a VarioSkan Lux Microplate reader (Thermo Fisher). All experiments were performed in quadruple and normalized to mock-treated cells.

[2] = test system: Lewis lung carcinoma (LLC1) cells; assay: Lewis lung carcinoma (LLC1) tumor model in immunocompetent C57BL/6 mice; assay type: in vivo; conditions: single agents; selinexor 15 mg/kg oral; MYXV expressing IL15/IL15Ra (vMyx-IL15Ra) IT 5×10^7 FFU; left and right tumors
Method: To verify that the combination of selinexor and MYXV is effective even in mice with a competent immune system, C57BL/6 mice were inoculated with mouse Lewis lung carcinoma (LLC1) cells (FIG. 14A). LLC1 cells were subcutaneously injected on both sides of the flank in C57BL/6 mice. Mice were separated into treatment groups and treated with PBS, selinexor, MYXV expressing IL15/IL15Ra (IT, 5×10^7), or selinexor+MYXV expressing IL15/IL15Ra.
The tumor burden on each flank was measured twice every week.

[3] = test system: PANC-1 cells; assay: Click-iT EdU cell proliferation assay; assay type: cell-based, human; conditions: PANC-1 cells treated for 24 hours; selinexor or MYXV
Method: Selinexor was previously reported to reduce the proliferation of cancer cells, however, viral infection also stops cell proliferation (Zheng, Y., et al., 2014, Cancer Chemotherapy and Pharmacology, 74:487-495; Johnston, J. B., et al., 2005, Journal of Virology, 79:10750-10763). As such, the effect of selinexor and MYXV on human cancer cells was examined alone and in combination. To this end, two cell proliferation assays were performed. In the first methods, DNA synthesis was measured by the incorporation of EdU (5-ethynyl-2′-deoxyuridine), a nucleoside analog of thymidine, into DNA during active DNA synthesis (FIG. 4A) (Chehrehasa F., et al., 2009, Journal of Neuroscience Methods, 177:122-130). Using this method in uninfected PANC-1 cells, EdU incorporation was detected in more than 50% of dividing cells (FIG. 4B and FIG. 4C). When cells were treated with selinexor or MYXV for 24 hours, on the other hand, a significant reduction in proliferation was observed (20% EdU-positive cells). […]
Click-iT EdU Cell Proliferation Assay: To visualize and measure cell proliferation, a Click-iT™ EdU cell proliferation assay (Thermo Fisher) was used according to the manufacturer's instructions. […] Fluorescence images were obtained using a fluorescence microscope and fluorescence signals were analyzed using ImageJ software.

## O=C(/C=C\n1cnc(-c2cc(C(F)(F)F)cc(C(F)(F)F)c2)n1)NNc1cnccn1 [selinexor]
[1]
  cell proliferation (DNA content): significant reductions in cell proliferation
[2]
  tumor burden: significantly reduced tumor burden
[3]
  EdU-positive cells: 20%
